ChEMBL document CHEMBL3885881, “DrugMatrix”

Organism: Rattus norvegicus
Assay: DrugMatrix - Regimen: Daily Repeat
Format: toxicity, organism-based, Sprague-Dawley
Set-up: regimen Daily Repeat, gender Male, age 6-8 weeks
Conditions: in vivo, po, route oral GAVAGE, […]; for TOTAL BILIRUBIN / TOTAL PROTEIN / URIC ACID / ALANINE AMINOTRANSFERASE / ALBUMIN / ALKALINE PHOSPHATASE / ASPARTATE AMINOTRANSFERASE / BLOOD UREA NITROGEN / CARBON DIOXIDE / CHLORIDE / CHOLESTEROL / CREATINE PHOSPHOKINASE / CREATININE / GLUCOSE / LACTATE DEHYDROGENASE / LIPASE / PHOSPHORUS / POTASSIUM / SODIUM: tissue Plasma; for ABSOLUTE BASOPHIL / ABSOLUTE EOSINOPHIL / ABSOLUTE LYMPHOCYTE / ABSOLUTE MONOCYTE / ABSOLUTE SEGMENTED NEUTROPHIL / BASOPHIL / EOSINOPHIL / ERYTHROCYTE COUNT / HEMATOCRIT / HEMOGLOBIN / LEUKOCYTE COUNT / LYMPHOCYTE / MEAN CORPUSCULAR HEMOGLOBIN / MEAN CORPUSCULAR HEMOGLOBIN CONCENTRATION / MEAN CORPUSCULAR VOLUME / MONOCYTE / NEUTROPHIL / NUCLEATED RED BLOOD CELLS / PLATELET COUNT: tissue Blood
[1] = 52 mg/kg, 120 h, dose level Low, time 5 day
[2] = 89 mg/kg, 72 h, dose level M1, time 3 day
[3] = 89 mg/kg, 120 h, dose level M1, time 5 day

Question: What does the source list for `Clc1ccccc1C(c1ccccc1)(c1ccccc1)n1ccnc1` [CLOTRIMAZOLE]?
Answer: TOTAL BILIRUBIN [1]: 0.1 mg/dL; TOTAL PROTEIN [1]: 6.03 G/DL; URIC ACID [1]: 0.63 mg/dL; ABSOLUTE BASOPHIL [2]: 0 CELLS/uL; ABSOLUTE EOSINOPHIL [2]: 25.67 CELLS/uL; ABSOLUTE LYMPHOCYTE [2]: 8596 CELLS/uL; ABSOLUTE MONOCYTE [2]: 0 CELLS/uL; ABSOLUTE SEGMENTED NEUTROPHIL [2]: 345 CELLS/uL; BASOPHIL [2]: 0%; EOSINOPHIL [2]: 0.33%; ERYTHROCYTE COUNT [2]: 5.65 x10E6/uL; HEMATOCRIT [2]: 35.6%; HEMOGLOBIN [2]: 13.1 G/DL; LEUKOCYTE COUNT [2]: 8.97 x10E3/uL; LYMPHOCYTE [2]: 95.33%; MEAN CORPUSCULAR HEMOGLOBIN [2]: 23.17 pg; MEAN CORPUSCULAR HEMOGLOBIN CONCENTRATION [2]: 36.8 G/DL; MEAN CORPUSCULAR VOLUME [2]: 63.03 fL; MONOCYTE [2]: 0%; NEUTROPHIL [2]: 4.33%; NUCLEATED RED BLOOD CELLS [2]: 0 /100WBC; PLATELET COUNT [2]: 1000.33 x10E3/uL; ALANINE AMINOTRANSFERASE [2]: 74.67 u/L; ALBUMIN [2]: 3.87 G/DL; ALKALINE PHOSPHATASE [2]: 348.33 u/L; ASPARTATE AMINOTRANSFERASE [2]: 101.33 u/L; BLOOD UREA NITROGEN [2]: 15.67 mg/dL; CARBON DIOXIDE [2]: 31.33 mmol/L; CHLORIDE [2]: 99.67 MEQ/L; CHOLESTEROL [2]: 51 mg/dL; CREATINE PHOSPHOKINASE [2]: 324.67 u/L; CREATININE [2]: 0.17 mg/dL; GLUCOSE [2]: 143.67 mg/dL; LACTATE DEHYDROGENASE [2]: 156.33 u/L; LIPASE [2]: 11 u/L; PHOSPHORUS [2]: 10.37 mg/dL; POTASSIUM [2]: 5.81 MEQ/L; SODIUM [2]: 144 MEQ/L; TOTAL BILIRUBIN [2]: 0.13 mg/dL; TOTAL PROTEIN [2]: 5.63 G/DL; URIC ACID [2]: 0.4 mg/dL; ABSOLUTE BASOPHIL [3]: 0 CELLS/uL; ABSOLUTE EOSINOPHIL [3]: 0 CELLS/uL; ABSOLUTE LYMPHOCYTE [3]: 14137.33 CELLS/uL; ABSOLUTE MONOCYTE [3]: 157.33 CELLS/uL; ABSOLUTE SEGMENTED NEUTROPHIL [3]: 1305.33 CELLS/uL; BASOPHIL [3]: 0%; EOSINOPHIL [3]: 0%; ERYTHROCYTE COUNT [3]: 5.79 x10E6/uL; HEMATOCRIT [3]: 36.4%; HEMOGLOBIN [3]: 13.37 G/DL; LEUKOCYTE COUNT [3]: 15.6 x10E3/uL; LYMPHOCYTE [3]: 91%; MEAN CORPUSCULAR HEMOGLOBIN [3]: 23.1 pg; MEAN CORPUSCULAR HEMOGLOBIN CONCENTRATION [3]: 36.73 G/DL; MEAN CORPUSCULAR VOLUME [3]: 62.87 fL; MONOCYTE [3]: 1%; NEUTROPHIL [3]: 8%; NUCLEATED RED BLOOD CELLS [3]: 0 /100WBC; PLATELET COUNT [3]: 1140.67 x10E3/uL; ALANINE AMINOTRANSFERASE [3]: 77.33 u/L; ALBUMIN [3]: 4.17 G/DL; ALKALINE PHOSPHATASE [3]: 461 u/L; ASPARTATE AMINOTRANSFERASE [3]: 103 u/L; BLOOD UREA NITROGEN [3]: 13.67 mg/dL; CARBON DIOXIDE [3]: 23.67 mmol/L; CHLORIDE [3]: 102 MEQ/L; CHOLESTEROL [3]: 58 mg/dL; CREATINE PHOSPHOKINASE [3]: 255 u/L; CREATININE [3]: 0.13 mg/dL; GLUCOSE [3]: 97.33 mg/dL; LACTATE DEHYDROGENASE [3]: 293 u/L; LIPASE [3]: 38.67 u/L; PHOSPHORUS [3]: 9.33 mg/dL; POTASSIUM [3]: 7.02 MEQ/L; SODIUM [3]: 147.95 MEQ/L; TOTAL BILIRUBIN [3]: 0.33 mg/dL; TOTAL PROTEIN [3]: 6.23 G/DL; URIC ACID [3]: 1.27 mg/dL
